Measured values from article PMC5218480 (PLoS ONE, 2017).

System: MV-4-11 cells
Test: Gene expression microarray analysis (Affymetrix PrimeView) and GSEA
Assay type: cell-based, human
Set-up: RFU PODN (11730768_x_at) / Fold change /veh PODN (11730768_x_at) / RFU LINC00158 (11744669_a_at) / Fold change /veh LINC00158 (11744669_a_at) / RFU DUSP10 (11751237_a_at) / Fold change /veh DUSP10 (11751237_a_at) / RFU ID3 (11757404_x_at) / Fold change /veh ID3 (11757404_x_at) / RFU PLEKHG5 (11737974_s_at) / Fold change /veh PLEKHG5 (11737974_s_at) / RFU LRRC4B (11730491_at) / Fold change /veh LRRC4B (11730491_at) / RFU GIMAP4 (11747438_a_at) / Fold change /veh GIMAP4 (11747438_a_at) / RFU KRT8 (11758183_x_at) / Fold change /veh KRT8 (11758183_x_at) / RFU CNN1 (11734310_a_at) / Fold change /veh CNN1 (11734310_a_at) / RFU VPS37D (11726825_at) / Fold change /veh VPS37D (11726825_at) / RFU C10orf10 (11716522_x_at) / Fold change /veh C10orf10 (11716522_x_at) / RFU KIR2DL2 /// KIR2DL4 /// KIR2DL5A /// KIR2DL5B /// KIR2DS1 /// KIR2DS2 /// KIR2DS3 /// KIR2DS4 /// KIR3DL3 /// KIR3DL3 /// KIR3DS1 (11738374_at) / Fold change /veh KIR2DL2 /// KIR2DL4 /// KIR2DL5A /// KIR2DL5B /// KIR2DS1 /// KIR2DS2 /// KIR2DS3 /// KIR2DS4 /// KIR3DL3 /// KIR3DL3 /// KIR3DS1 (11738374_at) / RFU C1QL1 (11718748_at) / Fold change /veh C1QL1 (11718748_at) / RFU TMPRSS4 (11747572_a_at) / Fold change /veh TMPRSS4 (11747572_a_at) / RFU HAMP (11756126_x_at) / Fold change /veh HAMP (11756126_x_at) / RFU RNFT2 (11725882_a_at) / Fold change /veh RNFT2 (11725882_a_at) / RFU NR4A2 (11747474_a_at) / Fold change /veh NR4A2 (11747474_a_at) / RFU ABCC12 (11746883_a_at) / Fold change /veh ABCC12 (11746883_a_at) / RFU TMEM136 (11760407_x_at) / Fold change /veh TMEM136 (11760407_x_at) / RFU CLDN22 /// WWC2 (11732394_at) / Fold change /veh CLDN22 /// WWC2 (11732394_at) / RFU HLA-DPB1 (11760878_x_at) / Fold change /veh HLA-DPB1 (11760878_x_at) / RFU SPINT1 (11716480_a_at) / Fold change /veh SPINT1 (11716480_a_at) / RFU GAP43 (11754022_s_at) / Fold change /veh GAP43 (11754022_s_at) / RFU A4GNT (11735810_at) / Fold change /veh A4GNT (11735810_at) / RFU PRB3 (11715151_x_at) / Fold change /veh PRB3 (11715151_x_at) / RFU TUBB4B (11761932_at) / Fold change /veh TUBB4B (11761932_at) / RFU CAPN14 (11732068_a_at) / Fold change /veh CAPN14 (11732068_a_at) / RFU TMCC2 (11721928_a_at) / Fold change /veh TMCC2 (11721928_a_at) / RFU IRGQ (11745062_a_at) / Fold change /veh IRGQ (11745062_a_at) / RFU FAM174B (11720279_a_at) / Fold change /veh FAM174B (11720279_a_at) / RFU TMPRSS4 (11748680_a_at) / Fold change /veh TMPRSS4 (11748680_a_at) / RFU FAM212B (11763350_a_at) / Fold change /veh FAM212B (11763350_a_at) / RFU PLEKHG5 (11743358_a_at) / Fold change /veh PLEKHG5 (11743358_a_at) / RFU ZSCAN30 (11745921_a_at) / Fold change /veh ZSCAN30 (11745921_a_at) / RFU CMKLR1 (11741424_a_at) / Fold change /veh CMKLR1 (11741424_a_at) / RFU LOC101060620 /// MAPK8IP1 (11723275_at) / Fold change /veh LOC101060620 /// MAPK8IP1 (11723275_at) / RFU SPTSSB (11747773_x_at) / Fold change /veh SPTSSB (11747773_x_at) / RFU PRSS12 (11739890_at) / Fold change /veh PRSS12 (11739890_at) / RFU BIN1 (11741810_x_at) / Fold change /veh BIN1 (11741810_x_at) / RFU WNT11 (11732464_a_at) / Fold change /veh WNT11 (11732464_a_at) / RFU C10orf10 (11716521_a_at) / Fold change /veh C10orf10 (11716521_a_at) / RFU C5orf56 (11738089_at) / Fold change /veh C5orf56 (11738089_at) / RFU CYB561 (11721691_x_at) / Fold change /veh CYB561 (11721691_x_at) / RFU ANKRD19P (11752326_a_at) / Fold change /veh ANKRD19P (11752326_a_at) / RFU OR2T12 /// OR2T33 /// OR2T8 (11738714_s_at) / Fold change /veh OR2T12 /// OR2T33 /// OR2T8 (11738714_s_at) / RFU VCAN (11748164_a_at) / Fold change /veh VCAN (11748164_a_at) / RFU JSRP1 (11732532_at) / Fold change /veh JSRP1 (11732532_at) / RFU KRTAP10-11 (11738290_x_at) / Fold change /veh KRTAP10-11 (11738290_x_at) / RFU MYO3A (11730013_a_at) / Fold change /veh MYO3A (11730013_a_at) / RFU EBF3 (11725865_a_at) / Fold change /veh EBF3 (11725865_a_at) / RFU CAMK2N1 (11719241_x_at) / Fold change /veh CAMK2N1 (11719241_x_at) / RFU C5orf56 (11738088_a_at) / Fold change /veh C5orf56 (11738088_a_at) / RFU OLFML3 (11715873_a_at) / Fold change /veh OLFML3 (11715873_a_at) / RFU LOC100653217 /// NTM (11731650_a_at) / Fold change /veh LOC100653217 /// NTM (11731650_a_at) / RFU MAPK11 (11762145_a_at) / Fold change /veh MAPK11 (11762145_a_at) / RFU FIZ1 (11724087_x_at) / Fold change /veh FIZ1 (11724087_x_at) / RFU OASL (11726364_x_at) / Fold change /veh OASL (11726364_x_at) / RFU SOX15 (11748057_x_at) / Fold change /veh SOX15 (11748057_x_at) / RFU CD79A (11719716_a_at) / Fold change /veh CD79A (11719716_a_at) / RFU HIST1H1D (11736915_at) / Fold change /veh HIST1H1D (11736915_at) / RFU CASKIN2 (11723855_a_at) / Fold change /veh CASKIN2 (11723855_a_at) / RFU LOC730098 (11760151_x_at) / Fold change /veh LOC730098 (11760151_x_at) / RFU OR4N2 (11742367_at) / Fold change /veh OR4N2 (11742367_at) / RFU PRRT2 (11749266_a_at) / Fold change /veh PRRT2 (11749266_a_at) / RFU SNX32 (11753110_a_at) / Fold change /veh SNX32 (11753110_a_at) / RFU CDHR5 (11726645_a_at) / Fold change /veh CDHR5 (11726645_a_at) / RFU RCAN1 (11760418_a_at) / Fold change /veh RCAN1 (11760418_a_at) / RFU FAM167A (11723789_a_at) / Fold change /veh FAM167A (11723789_a_at) / RFU FAM26E (11764081_at) / Fold change /veh FAM26E (11764081_at) / RFU ISYNA1 (11749810_s_at) / Fold change /veh ISYNA1 (11749810_s_at) / RFU ACY1 (11761880_at) / Fold change /veh ACY1 (11761880_at) / RFU 11764098_at / Fold change /veh 11764098_at / RFU SAMD14 (11745864_x_at) / Fold change /veh SAMD14 (11745864_x_at) / RFU NPB (11741838_a_at) / Fold change /veh NPB (11741838_a_at) / RFU TMPRSS6 (11731388_a_at) / Fold change /veh TMPRSS6 (11731388_a_at) / RFU KRTAP10-2 (11738614_at) / Fold change /veh KRTAP10-2 (11738614_at) / RFU ARHGAP8 /// PRR5-ARHGAP8 (11727945_x_at) / Fold change /veh ARHGAP8 /// PRR5-ARHGAP8 (11727945_x_at) / RFU KRTAP5-7 /// NADSYN1 (11734609_at) / Fold change /veh KRTAP5-7 /// NADSYN1 (11734609_at) / RFU RASL12 (11751679_a_at) / Fold change /veh RASL12 (11751679_a_at) / RFU CDKN2B (11736163_a_at) / Fold change /veh CDKN2B (11736163_a_at) / RFU PRF1 (11729649_at) / Fold change /veh PRF1 (11729649_at) / RFU, ZNF638 /// ZNF638-IT1 / Fold change vs veh, ZNF638 /// ZNF638-IT1 / RFU, PANK3 / Fold change vs veh, PANK3 / RFU, SH3YL1 / Fold change vs veh, SH3YL1 / RFU, ZEB2 / Fold change vs veh, ZEB2 / RFU, NRIP1 / Fold change vs veh, NRIP1 / RFU, PTTG1IP / Fold change vs veh, PTTG1IP / RFU, CAPN2 / Fold change vs veh, CAPN2 / RFU, MED14 / Fold change vs veh, MED14 / RFU, SNORA58 / Fold change vs veh, SNORA58 / RFU, C1orf63 / Fold change vs veh, C1orf63 / RFU, LRRFIP1 / Fold change vs veh, LRRFIP1 / RFU, NDUFAF7 / Fold change vs veh, NDUFAF7 / RFU, SLC12A2 / Fold change vs veh, SLC12A2 / RFU, IBTK / Fold change vs veh, IBTK / RFU, ESF1 / Fold change vs veh, ESF1 / Fold change vs veh, TMEM50B / RFU, TAOK1 / Fold change vs veh, TAOK1 / RFU, ACBD3 / Fold change vs veh, ACBD3 / RFU, TMA16 / Fold change vs veh, TMA16 / RFU, RWDD3 / Fold change vs veh, RWDD3 / RFU, BCAT1 / Fold change vs veh, BCAT1 / RFU, EDEM3 / Fold change vs veh, EDEM3 / RFU, TMEM33 / Fold change vs veh, TMEM33 / RFU, WDR75 / Fold change vs veh, WDR75 / RFU, AHCTF1 / Fold change vs veh, AHCTF1 / RFU, TFRC / Fold change vs veh, TFRC / RFU, ZDHHC17 / Fold change vs veh, ZDHHC17 / RFU, NOM1 / Fold change vs veh, NOM1 / RFU, ARL8B / Fold change vs veh, ARL8B / RFU, ZBTB11 / Fold change vs veh, ZBTB11 / RFU, TAMM41 / Fold change vs veh, TAMM41 / RFU, KIAA1704 /// LOC100996395 / Fold change vs veh, KIAA1704 /// LOC100996395 / RFU, ING1 / Fold change vs veh, ING1 / RFU, TRMT61B / Fold change vs veh, TRMT61B / RFU, FUBP3 / Fold change vs veh, FUBP3 / RFU, TP53 / Fold change vs veh, TP53 / RFU, TNKS2 / Fold change vs veh, TNKS2 / RFU, ZFP14 / Fold change vs veh, ZFP14 / RFU, ACTR2 / Fold change vs veh, ACTR2 / RFU, PPP3R1 / Fold change vs veh, PPP3R1 / RFU, PIK3R1 / Fold change vs veh, PIK3R1 / RFU, HNRNPA1 / Fold change vs veh, HNRNPA1 / RFU, RNF170 / Fold change vs veh, RNF170 / RFU, ZNF28 / Fold change vs veh, ZNF28 / RFU, RNGTT / Fold change vs veh, RNGTT / RFU, OGT / Fold change vs veh, OGT / RFU, BRD1 / Fold change vs veh, BRD1 / RFU, MARS / Fold change vs veh, MARS / RFU, ZNF655 / Fold change vs veh, ZNF655 / RFU, FAHD1 / Fold change vs veh, FAHD1 / RFU, BDP1 / Fold change vs veh, BDP1 / RFU, LRRCC1 / Fold change vs veh, LRRCC1 / RFU, ARID1A / Fold change vs veh, ARID1A / RFU, ZNF146 / Fold change vs veh, ZNF146 / RFU, ZNF330 / Fold change vs veh, ZNF330 / RFU, GPN3 / Fold change vs veh, GPN3 / RFU, C9orf123 / Fold change vs veh, C9orf123 / RFU, N4BP2L2 / Fold change vs veh, N4BP2L2 / RFU, ARFIP1 / Fold change vs veh, ARFIP1 / RFU, FAM179B / Fold change vs veh, FAM179B / RFU, BCL10 / Fold change vs veh, BCL10 / RFU, UHRF1BP1L / Fold change vs veh, UHRF1BP1L / RFU, BET1 / Fold change vs veh, BET1 / RFU, CNOT2 / Fold change vs veh, CNOT2 / RFU, ZNF268 / Fold change vs veh, ZNF268 / Fold change vs veh, ZNF507 / RFU, DGCR2 / Fold change vs veh, DGCR2 / RFU, WDSUB1 / Fold change vs veh, WDSUB1 / Fold change vs veh, HSP90B1 /// MIR3652 / RFU, ADSS / Fold change vs veh, ADSS / RFU, GK / Fold change vs veh, GK / RFU, ZNF148 / Fold change vs veh, ZNF148 / RFU, TAF9 / Fold change vs veh, TAF9 / RFU, SLC1A5 / Fold change vs veh, SLC1A5 / RFU, SLMO2 / Fold change vs veh, SLMO2 / RFU, ABCC4 / Fold change vs veh, ABCC4 / RFU, LOC101060439 /// RAP1B / Fold change vs veh, LOC101060439 /// RAP1B / RFU, RFX7 / Fold change vs veh, RFX7 / RFU, GTPBP10 / Fold change vs veh, GTPBP10 / RFU, CNEP1R1 / Fold change vs veh, CNEP1R1 / RFU, BIVM-ERCC5 /// ERCC5 / Fold change vs veh, BIVM-ERCC5 /// ERCC5 / RFU, ILF3 / Fold change vs veh, ILF3 / RFU 11762660_at / Fold change /veh 11762660_at / RFU VCAN (11757783_s_at) / Fold change /veh VCAN (11757783_s_at) / RFU DDX43 (11728927_at) / Fold change /veh DDX43 (11728927_at) / RFU KRT8 (11758188_x_at) / Fold change /veh KRT8 (11758188_x_at) / RFU NKD1 (11759106_at) / Fold change /veh NKD1 (11759106_at) / RFU SRD5A1 (11742802_a_at) / Fold change /veh SRD5A1 (11742802_a_at) / RFU TPSAB1 /// TPSB2 (11721975_s_at) / Fold change /veh TPSAB1 /// TPSB2 (11721975_s_at) / RFU GSTM3 (11746129_a_at) / Fold change /veh GSTM3 (11746129_a_at) / RFU IL23R (11737362_x_at) / Fold change /veh IL23R (11737362_x_at) / RFU TMEM51 (11727254_a_at) / Fold change /veh TMEM51 (11727254_a_at) / RFU PIWIL2 (11732686_x_at) / Fold change /veh PIWIL2 (11732686_x_at) / RFU ORM1 (11744905_x_at) / Fold change /veh ORM1 (11744905_x_at) / RFU CCDC152 (11743942_at) / Fold change /veh CCDC152 (11743942_at) / RFU ECM1 (11717891_a_at) / Fold change /veh ECM1 (11717891_a_at) / RFU IL23R (11748794_a_at) / Fold change /veh IL23R (11748794_a_at) / RFU TNFAIP8L3 (11732012_x_at) / Fold change /veh TNFAIP8L3 (11732012_x_at) / RFU MBOAT4 (11741988_at) / Fold change /veh MBOAT4 (11741988_at) / RFU 11764193_at / Fold change /veh 11764193_at / RFU TMEM53 (11763286_at) / Fold change /veh TMEM53 (11763286_at) / RFU MAGEB2 (11727129_at) / Fold change /veh MAGEB2 (11727129_at) / RFU TMEM200A (11744735_a_at) / Fold change /veh TMEM200A (11744735_a_at) / RFU CCDC152 (11751479_a_at) / Fold change /veh CCDC152 (11751479_a_at) / RFU FAM211A (11726209_a_at) / Fold change /veh FAM211A (11726209_a_at) / RFU RGS16 (11746705_a_at) / Fold change /veh RGS16 (11746705_a_at) / RFU VCAN (11755009_s_at) / Fold change /veh VCAN (11755009_s_at) / RFU RHOB (11743442_s_at) / Fold change /veh RHOB (11743442_s_at) / RFU RGS16 (11720943_a_at) / Fold change /veh RGS16 (11720943_a_at) / RFU RGS16 (11720944_at) / Fold change /veh RGS16 (11720944_at) / RFU, VPS4B / Fold change vs veh, VPS4B / RFU, CREB1 / Fold change vs veh, CREB1 / RFU, DNAJC13 / Fold change vs veh, DNAJC13 / RFU, GNAQ / Fold change vs veh, GNAQ / RFU, CDK5R1 / Fold change vs veh, CDK5R1 / RFU, ZRANB3 / Fold change vs veh, ZRANB3 / RFU, CUL4A / Fold change vs veh, CUL4A / RFU, CCNY / Fold change vs veh, CCNY / RFU, UFL1 / Fold change vs veh, UFL1 / RFU, COG3 / Fold change vs veh, COG3 / RFU, DIAPH2 / Fold change vs veh, DIAPH2 / RFU, SKA2 / Fold change vs veh, SKA2 / RFU, AFF3 / Fold change vs veh, AFF3 / RFU, LMF1 / Fold change vs veh, LMF1 / RFU, IPO11 / Fold change vs veh, IPO11 / RFU, DFFB / Fold change vs veh, DFFB / RFU, FOXP1 / Fold change vs veh, FOXP1 / RFU, CARD8 / Fold change vs veh, CARD8 / RFU, STRN3 / Fold change vs veh, STRN3 / RFU, ADK / Fold change vs veh, ADK / RFU, RASSF2 / Fold change vs veh, RASSF2 / RFU, WIPF1 / Fold change vs veh, WIPF1 / RFU, LARP1B / Fold change vs veh, LARP1B / RFU, RASA1 / Fold change vs veh, RASA1 / RFU, RB1 / Fold change vs veh, RB1 / RFU, PPFIA1 / Fold change vs veh, PPFIA1 / RFU, MAT2A / Fold change vs veh, MAT2A / RFU, CCT5 / Fold change vs veh, CCT5 / RFU, WDR92 / Fold change vs veh, WDR92 / RFU, CUX1 / Fold change vs veh, CUX1 / RFU, TTC7A / Fold change vs veh, TTC7A / RFU, TMEM135 / Fold change vs veh, TMEM135 / RFU, DEPTOR / Fold change vs veh, DEPTOR / RFU, CPM / Fold change vs veh, CPM / RFU, DNAJB6 / Fold change vs veh, DNAJB6 / RFU, CACNA2D3 / Fold change vs veh, CACNA2D3 / RFU, DTX4 / Fold change vs veh, DTX4 / RFU, TFCP2 / Fold change vs veh, TFCP2 / RFU, GMCL1 /// GMCL1P1 / Fold change vs veh, GMCL1 /// GMCL1P1 / RFU, AEBP2 / Fold change vs veh, AEBP2 / RFU, SNHG1 /// SNORD22 /// SNORD25 /// SNORD26 /// SNORD27 /// SNORD28 /// SNORD29 /// SNORD31 / Fold change vs veh, SNHG1 /// SNORD22 /// SNORD25 /// SNORD26 /// SNORD27 /// SNORD28 /// SNORD29 /// SNORD31 / Fold change (Aza/veh), C12orf56 (ProbeSet 11735607_a_at) / Fold change (ACY-1035/veh), C12orf56 (ProbeSet 11735607_a_at) / Fold change (Aza/veh), FGFR1OP (ProbeSet 11751329_s_at) / Fold change (ACY-1035/veh), FGFR1OP (ProbeSet 11751329_s_at) / Fold change (Aza/veh), VPS36 (ProbeSet 11739960_a_at) / Fold change (ACY-1035/veh), VPS36 (ProbeSet 11739960_a_at) / RFU SYPL1 (11715823_x_at) / Fold change /veh SYPL1 (11715823_x_at) / RFU IGFBP7 (11715501_s_at) / Fold change /veh IGFBP7 (11715501_s_at) / RFU REEP3 (11722064_at) / Fold change /veh REEP3 (11722064_at) / RFU IGLL1 (11728026_x_at) / Fold change /veh IGLL1 (11728026_x_at): dose or concentration left out as unconfirmed
Conditions: MV-4-11 cells, 48 hours

Nc1ccc(-c2cccs2)cc1NC(=O)c1ccc2c(c1)cc(C1CC1)n2CCN1CCOCC1 [ACY-1035]
Fold change /veh KRT8 (11758188_x_at): 1.06
